In the NIST ThermoML archive (doi:10.1016/j.tca.2019.05.011):

Assays:
[1] = Liquid, Closed cell (Static) method
[2] = molar heat capacity at constant pressure; conditions: 101.33 kPa, Liquid, Vacuum adiabatic calorimetry

CC(C)O [propan-2-ol]
Conditions | molar heat capacity at constant pressure [J/K/mol] | vapor or sublimation pressure [kPa]
[1], 297.8 K | – | 5.781
[1], 303.1 K | – | 7.995
[1], 315.8 K | – | 16.22
[1], 332.1 K | – | 36.06
[1], 344.7 K | – | 63.92
[2], 190 K | 111.12 | –
[2], 200 K | 112.89 | –
[2], 210 K | 115.01 | –
[2], 220 K | 117.52 | –
[2], 230 K | 120.46 | –
[2], 240 K | 123.87 | –
[2], 250 K | 127.81 | –
[2], 260 K | 132.31 | –
[2], 270 K | 137.41 | –
[2], 280 K | 143.19 | –
[2], 290 K | 149.68 | –
[2], 300 K | 156.94 | –
[2], 310 K | 165.02 | –
[2], 320 K | 173.99 | –
[2], 330 K | 183.9 | –
